Drawing on patent US11401270B2, “Alcoxyamino derivatives for treating pain and pain related conditions” (ESTEVE PHARMACEUTICALS, S.A., priority 2017, dated 2022), this text covers Ki for 22 molecules.

Assay [1] has as its target Human α2δ-1 subunit of Cav2.2 calcium channel (Homo sapiens (Human), UniProt P54289). In words: Binding Assay to Human α2δ-1 Subunit of Cav2.2 Calcium Channel. To be noted: human α2δ-1 enriched membranes, 15 nM [3H]-Gabapentin, read-out: Ki(nM) alpha2delta Hum. A digest of the protocol: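 Radioligand filtration binding at the α2δ-1 subunit, test compound at five concentrations; nonspecific binding defined with 10 μM pregabalin. Incubated 60 min at 27 °C, stopped by GF/C filtration (0.5% PEI presoaked) with ice-cold 50 mM Tris-HCl pH 7.4 washes; bound radioactivity counted by scintillation.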

The target of assay [2] is Human norepinephrine transporter (NET) (Homo sapiens (Human), UniProt P23975). In words: Binding Assay to Human Norepinephrine Transporter (NET). To be noted: Table 2, dual compounds; human NET enriched membranes, 5 nM [3H]-Nisoxetin; read-out: Ki(nM) NET Hum. The protocol:
Binding Assay to Human Norepinephrine Transporter (NET).
Human norepinephrine transporter (NET) enriched membranes (5 μg) were incubated with 5 nM of radiolabeled [3H]-Nisoxetin in assay buffer containing 50 mM Tris-HCl, 120 mM NaCl, 5 mM KCl, pH 7.4.
NSB (non specific binding) was measured by adding 10 μM desipramine. The binding of the test compound was measured in five different concentrations. After 60 min incubation at 4° C., binding reaction was terminated by filtering through Multiscreen GF/C (Millipore) presoaked in 0.5% polyethyleneimine in Vacuum Manifold Station, followed by 3 washes with ice-cold filtration buffer containing 50 mM Tris-HCl, 0.9% NaCl, pH 7.4.
Filter plates were dried at 60° C. for 1 hour and 30 μl of scintillation cocktail were added to each well before radioactivity reading.

Like-named read-outs stand apart in the source and are kept apart here.

Chain of Human norepinephrine transporter (NET) (P23975 whole entry): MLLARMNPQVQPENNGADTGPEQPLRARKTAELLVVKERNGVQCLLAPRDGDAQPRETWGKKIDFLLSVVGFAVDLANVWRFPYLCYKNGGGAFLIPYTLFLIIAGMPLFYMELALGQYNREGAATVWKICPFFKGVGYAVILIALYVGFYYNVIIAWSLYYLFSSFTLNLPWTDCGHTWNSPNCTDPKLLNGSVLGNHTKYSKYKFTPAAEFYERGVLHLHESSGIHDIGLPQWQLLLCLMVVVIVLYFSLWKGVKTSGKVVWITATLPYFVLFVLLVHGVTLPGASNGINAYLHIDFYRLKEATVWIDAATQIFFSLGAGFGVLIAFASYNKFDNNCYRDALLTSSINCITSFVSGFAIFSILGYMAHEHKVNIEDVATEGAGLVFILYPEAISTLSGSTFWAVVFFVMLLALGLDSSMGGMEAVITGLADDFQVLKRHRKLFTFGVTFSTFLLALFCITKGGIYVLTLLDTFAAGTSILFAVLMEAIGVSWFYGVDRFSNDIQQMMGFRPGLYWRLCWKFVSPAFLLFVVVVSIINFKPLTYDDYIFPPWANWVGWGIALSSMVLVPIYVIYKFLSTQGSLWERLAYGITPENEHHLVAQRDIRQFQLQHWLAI
Chain of Human α2δ-1 subunit of Cav2.2 calcium channel (P54289 25-1103): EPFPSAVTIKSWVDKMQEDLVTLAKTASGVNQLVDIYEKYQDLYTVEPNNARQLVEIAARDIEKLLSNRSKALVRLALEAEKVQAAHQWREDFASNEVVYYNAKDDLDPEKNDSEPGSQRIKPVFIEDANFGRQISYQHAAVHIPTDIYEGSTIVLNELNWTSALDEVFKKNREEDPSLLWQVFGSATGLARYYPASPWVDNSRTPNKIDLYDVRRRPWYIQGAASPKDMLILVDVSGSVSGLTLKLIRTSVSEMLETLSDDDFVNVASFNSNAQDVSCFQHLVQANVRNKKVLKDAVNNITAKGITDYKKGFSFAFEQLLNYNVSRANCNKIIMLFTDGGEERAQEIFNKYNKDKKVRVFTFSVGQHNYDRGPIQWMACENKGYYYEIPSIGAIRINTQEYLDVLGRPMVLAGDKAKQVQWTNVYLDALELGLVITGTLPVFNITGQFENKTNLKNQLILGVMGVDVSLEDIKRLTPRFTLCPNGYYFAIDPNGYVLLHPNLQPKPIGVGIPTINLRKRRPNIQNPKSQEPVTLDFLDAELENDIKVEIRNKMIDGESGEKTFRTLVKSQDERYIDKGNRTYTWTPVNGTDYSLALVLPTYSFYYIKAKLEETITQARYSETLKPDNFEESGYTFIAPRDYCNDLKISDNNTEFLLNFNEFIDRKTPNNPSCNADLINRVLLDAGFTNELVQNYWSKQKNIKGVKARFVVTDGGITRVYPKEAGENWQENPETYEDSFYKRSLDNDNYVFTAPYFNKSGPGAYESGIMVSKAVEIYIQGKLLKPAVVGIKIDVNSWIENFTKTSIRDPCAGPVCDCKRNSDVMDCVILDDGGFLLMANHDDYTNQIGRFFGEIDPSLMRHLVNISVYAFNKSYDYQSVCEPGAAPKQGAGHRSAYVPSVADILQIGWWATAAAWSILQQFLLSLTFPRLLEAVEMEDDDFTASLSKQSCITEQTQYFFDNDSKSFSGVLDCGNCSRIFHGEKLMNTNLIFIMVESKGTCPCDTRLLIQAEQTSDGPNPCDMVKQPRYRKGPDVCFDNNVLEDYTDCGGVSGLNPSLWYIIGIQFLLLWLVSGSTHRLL

`CNCC[C@H](Oc1ccc(CN2CCN(C)c3cnccc3C2=O)cc1)c1cccs1` [Example 96, (S)-1-methyl-4-(4-(3-(methylamino)-1-(thiophen-2-yl)propoxy)benzyl)-1,2,3,4-tetrahydro-5H-pyrido[3,4-e][1,4]diazepin-5-one]: the Ki was 100 to 500 nM in assay [1] (Table 1); 100 to 500 nM in assay [1] (Table 2, dual compounds); 100 to 500 nM in assay [2].

Regarding `CNCC[C@H](Oc1ccc(CN2CCN(C)c3cccnc3C2=O)cc1)c1cccs1` [Example 97, (S)-1-methyl-4-(4-(3-(methylamino)-1-(thiophen-2-yl)propoxy)benzyl)-1,2,3,4-tetrahydro-5H-pyrido[3,2-e][1,4]diazepin-6-one], the Ki fell in the range of 500 to 3000 nM in assay [1] (Table 1); 500 to 3000 nM in assay [1] (Table 2, dual compounds); 100 to 500 nM in assay [2].

With `CNCC[C@H](Oc1ccc(CN2CCN(C)c3ccccc3C2=O)cc1)c1cccs1` [Example 98, (S)-1-methyl-4-(4-(3-(methylamino)-1-(thiophen-2-yl)propoxy)benzyl)-1,2,3,4-tetrahydro-5H-benzo[e][1,4]diazepin-5-one], the Ki fell in the range of 500 to 3000 nM in assay [1] (Table 1); 500 to 3000 nM in assay [1] (Table 2, dual compounds); 100 to 500 nM in assay [2].

As to `CNCCC(Oc1ccc(CN2CCN(C)c3ncccc3C2=O)cc1)c1cccs1` (stereo not drawn) [Example 99, 1-Methyl-4-(4-(3-(methylamino)-1-(thiophen-2-yl)propoxy)benzyl)-1,2,3,4-tetrahydro-5H-pyrido[2,3-e][1,4]diazepin-5-one], the Ki was < 100 nM in assay [1] (Table 1); < 100 nM in assay [1] (Table 2, dual compounds); < 100 nM in assay [2].

Regarding `CNCCC(Oc1ccc(CN2CCN(C)c3nc(C)ccc3C2=O)cc1)c1cccs1` (stereo not drawn) [Example 100, 1,8-Dimethyl-4-(4-(3-(methylamino)-1-(thiophen-2-yl)propoxy)benzyl)~ 1,2,3,4-tetrahydro-5H-pyrido[2,3-e][1,4]diazepin-5-one], the Ki fell in the range of 100 to 500 nM in assay [1] (Table 1); 100 to 500 nM in assay [1] (Table 2, dual compounds); 500 to 1000 nM in assay [2].

On to `CNCC[C@H](Oc1ccc(CN2CCN(C)c3nc(N)ccc3C2=O)cc1)c1cccs1` [Example 103, (S)-8-amino-1-methyl-4-(4-(3-(methylamino)-1-(thiophen-2-yl)propoxy)benzyl)-1,2,3,4-tetrahydro-5H-pyrido[2,3-e][1,4]diazepin-5-one], for which the Ki in assay [1] (Table 1) is < 100 nM; in assay [1] (Table 2, dual compounds), < 100 nM; in assay [2], < 100 nM.

With `CNCC[C@H](Oc1ccc(CN2CCCn3nccc3C2=O)cc1)c1cccs1` [Example 104, (S)-5-(4-(3-(methylamino)-1-(thiophen-2-yl)propoxy)benzyl)-5,6,7,8-tetrahydro-4H-pyrazolo[1,5-a][1,4]diazepin-4-one], the Ki in assay [1] (Table 1) is 100 to 500 nM; in assay [1] (Table 2, dual compounds), 100 to 500 nM; in assay [2], 100 to 500 nM.

For `CNCC[C@H](Oc1ccc(CN2CCN(C)c3ncccc3C2=O)c(F)c1)c1cccs1` [Example 108, (S)-4-(2-fluoro-4-(3-(methylamino)-1-(thiophen-2-yl)propoxy)benzyl)-1-methyl-1,2,3,4-tetrahydro-5H-pyrido[2,3-e)[1,4]diazepin-5-one], the Ki in assay [1] (Table 1) was < 100 nM; in assay [1] (Table 2, dual compounds) it was < 100 nM; in assay [2] it was 100 to 500 nM.

As to `CNCCC(Oc1ccc(CN2CCN(C)c3nc(C)ccc3C2=O)cc1)c1ccccc1` (stereo not drawn) [Example 110, 1,8-Dimethyl-4-(4-(3-(methylamino)-1-phenylpropoxy)benzyl)-1,2,3,4-tetrahydro-5H-pyrido[2,3-e][1,4]diazepin-5-one], the Ki was 500 to 3000 nM in assay [1] (Table 1); 500 to 3000 nM in assay [1] (Table 2, dual compounds); < 100 nM in assay [2].

Take `CCNc1ccc2c(n1)N(C)CCN(Cc1ccc(OC(CCNC)c3ccccc3)cc1)C2=O` (stereo not drawn) [Example 111, 8-(Ethylamino)-1-methyl-4-(4-(3-(methylamino)-1-phenylpropoxy)benzyl)-1,2,3,4-tetrahydro-5H-pyrido[2,3-e][1,4]diazepin-5-one]: the Ki is 500 to 3000 nM in assay [1] (Table 1); 500 to 3000 nM in assay [1] (Table 2, dual compounds); < 100 nM in assay [2].

For the molecule `CNCC[C@H](Oc1ccc(CN2CCN(C)c3ncccc3C2=O)c(C)c1)c1ccccc1` [Example 114, (S)-1-methyl-4-(2-methyl-4-(3-(methylamino)-1-phenylpropoxy)benzyl)-1,2,3,4-tetrahydro-5H-pyrido[2,3-e][1,4]diazepin-5-one], the Ki was in the range of 100 to 500 nM in assay [1] (Table 1); 100 to 500 nM in assay [1] (Table 2, dual compounds); 100 to 500 nM in assay [2].

With `CNCCC(Oc1ccc(CN2CCN(C)c3ncccc3C2=O)cc1)c1ccc(F)cc1` (stereo not drawn) [Example 115, 4-(4-(1-(4-Fluorophenyl)-3-(methylamino)propoxy)benzyl)-1-methyl-1,2,3,4-tetrahydro-5H-pyrido[2,3-e][1,4]diazepin-5-one], the Ki is 500 to 3000 nM in assay [1] (Table 1); 500 to 3000 nM in assay [1] (Table 2, dual compounds); < 100 nM in assay [2].

As to `CNCC[C@H](Oc1ccc(CN2CCN(C)c3ncccc3C2=O)c(F)c1)c1ccccc1` [Example 116, (S)-4-(2-fluoro-4-(3-(methylamino)-1-phenylpropoxy)benzyl)-1-methyl-1,2,3,4-tetrahydro-5H-pyrido[2,3-e][1,4]diazepin-5-one], the Ki in assay [1] (Table 1) was < 100 nM; in assay [1] (Table 2, dual compounds), < 100 nM; in assay [2] it was < 100 nM.

As to `CNCCC(Oc1ccc(CN2CCN(C)c3ncccc3C2=O)cc1)c1cccc(F)c1` (stereo not drawn) [Example 117, 4-(4-(1-(3-Fluorophenyl)-3-(methylamino)propoxy)benzyl)-1-methyl-1,2,3,4-tetrahydro-5H-pyrido[2,3-e][1,4]diazepin-5-one], the Ki was 100 to 500 nM in assay [1] (Table 1); 100 to 500 nM in assay [1] (Table 2, dual compounds); < 100 nM in assay [2].

As to `CNCCC(Oc1ccc(F)c(N2CCN(C)c3ncccc3C2=O)c1)c1cccc(F)c1` (stereo not drawn) [Example 119, 4-(2-Fluoro-5-(1-(3-ftuorophenyl)-3-(methylamino)propoxy)phenyl)-1-methyl-1,2,3,4-tetrahydro-5H-pyrido[2,3-e][1,4]diazepin-5-one], the Ki in assay [1] (Table 1) is 100 to 500 nM; in assay [1] (Table 2, dual compounds), 100 to 500 nM; in assay [2], < 100 nM.

In the case of `CNCC[C@H](Oc1cc(F)cc(N2CCN(C)c3ncccc3C2=O)c1)c1cccs1` [Example 120, (S)-4-(3-fluoro-5-(3-(methylamino)-1-(thiophen-2-yl)propoxy)phenyl)-1-methyl-1,2,3,4-tetrahydro-5H-pyrido[2,3-e][1,4]diazepin-5-one], the Ki in assay [1] (Table 1) was < 100 nM; in assay [1] (Table 2, dual compounds) it was < 100 nM; in assay [2], < 100 nM.

For `CNCCC(Oc1cc(F)cc(N2CCN(C)c3ncccc3C2=O)c1)c1cccc(F)c1` (stereo not drawn) [Example 121, 4-(3-Fluoro-5-(1-(3-fluorophenyl)-3-(methylamino)propoxy)phenyl)-1-methyl-1,2,3,4-tetrahydro-5H-pyrido[2,3-e][1,4]diazepin-5-one], the Ki in assay [1] (Table 1) was < 100 nM; in assay [1] (Table 2, dual compounds), < 100 nM; in assay [2], < 100 nM.

For `CNCCC(Oc1ccc(CN2CCN(C)c3ncccc3C2=O)c(F)c1)c1cccc(F)c1` (stereo not drawn) [Example 123, 4-(2-Fluoro-4-(1-(3-fluorophenyl)-3-(methylamino)propoxy)benzyl)-1-methyl-1,2,3,4-telrahydro-5H-pyrido[2,3-e][1,4]diazepin-5-one], the Ki was < 100 nM in assay [1] (Table 1); < 100 nM in assay [1] (Table 2, dual compounds); < 100 nM in assay [2].

`CNCC[C@H](Oc1ccc(CN2CCN(C)c3ncccc3C2=O)c(Cl)c1)c1cccs1` [Example 126, (S)-4-(2-chloro-4-(3-(methylamino)-1-(thiophen-2-yl)propoxy)benzyl)-1-methyl-1,2,3,4-tetrahydro-5H-pyrido[2,3-e][1,4]diazepin-5-one]: the Ki was < 100 nM in assay [1] (Table 1); < 100 nM in assay [1] (Table 2, dual compounds); < 100 nM in assay [2].

Regarding `CNCCC(Oc1ccc(CN2CCN(C)c3ncccc3C2=O)c(F)c1)c1ccccc1F` (stereo not drawn) [Example 129, 4-(2-Fluoro-4-(1-(2-fluorophenyl)-3-(methylamino)propoxy)benzyl)-1-methyl-1,2,3,4-tetrahydro-5H-pyrido[2,3-e][1,4]diazepin-5-one], the Ki is 100 to 500 nM in assay [1] (Table 1); 100 to 500 nM in assay [1] (Table 2, dual compounds); < 100 nM in assay [2].

As for `CNCCC(Oc1ccc(CN2CCN(C)c3nc(N)ccc3C2=O)c(F)c1)c1cccc(F)c1` (stereo not drawn) [Example 131, 8-Amino-4-(2-fluoro-4-(1-(3-fluorophenyl)-3-(methylamino)propoxy)benzyl)-1-methyl-1,2,3,4-tetrahydro-5H-pyrido[2,3-e][1,4]diazepin-5-one], the Ki in assay [1] (Table 1) was < 100 nM; in assay [1] (Table 2, dual compounds), < 100 nM; in assay [2], < 100 nM.

Take `CNCC[C@H](Oc1ccc(CN2CCN(C)c3nc(OC)ccc3C2=O)c(F)c1)c1ccccc1` [Example 132, (S)-4-(2-fluoro-4-(3-(methylamino)-1-phenylpropoxy)benzyl)-8-methoxy-1-methyl-1,2,3,4-tetrahydro-5H-pyrido[2,3-e][1,4]diazepin-5-one]: the Ki is 100 to 500 nM in assay [1] (Table 1); 100 to 500 nM in assay [1] (Table 2, dual compounds); < 100 nM in assay [2].
